In patent US20110171309A1, “Compositions and Methods for Composite Nanoparticle Hydrogels” (Board of Regents, The University of Texas System, priority 2008, published 2011):

Key:
[1] = test system: human aortic smooth muscle cells; test: Cytotoxic effects of photoinitiator concentrations, MTS assay; type: cell-based; conditions: no UV, 3 days
Method: (§1) Human aortic smooth muscle cells (HASMC) were cultured in complete medium consisting of Dulbecco's modified Eagle medium supplemented with 10% fetal bovine serum and 1% penicillin-streptomycin (Invitrogen, Carlsbad, Calif.). Upon 80-90% confluency, the cells were passaged or used for experiments. For all experiments, the cells were seeded in 24-well plates (Corning, Corning, N.Y.) at a density of 7000 cells per well. Following seeding, the cells were incubated at 37 °C and 5% CO2 in a humid environment for 2 days to allow cellular attachment and growth. After 2 days, the HASMCs were exposed to varying concentrations of the photoinitiator Irgacure 2959 (Ciba Specialty Chemicals), and/or UV exposure.
To evaluate the cytotoxic effects of photoinitiator concentrations on HASMCs, the cells were seeded and cultured as described earlier. Irgacure 2959 was directly dissolved in complete media to obtain final concentrations of 0.01%, 0.02%, 0.04%, 0.08%, and 0.16% (w/v). These photoinitiator concentrations were well within the range required for photopolymerization in a short period of time. […] These solutions were then sterilized using 0.2-μm syringe filters before they were added to the HASMCs. The control wells consisted of cells incubated with photoinitiator-free complete media. After the addition of the photoinitiator, the cells were incubated for 3 days, and then cell survival was determined using MTS assays. The cell survival for the controls was determined to be 1±0.09. […] Upon increasing the photoinitiator concentrations above 0.02% (w/v), a statistically significant decrease was noticed in the relative cell survival.
(§2) After the experiments, the cell survival was quantified using the MTS assay (CellTiter 961 Aqueous One Solution Cell Proliferation Assay, Promega) following the manufacturer's instructions. The cells were incubated with the MTS reagent for 4 h, after which 200 μL of the solution was transferred to 96-well plates, and absorbance was read at 490 nm using a microplate reader (VMax, Molecular Devices). Relative cell survival was obtained by dividing the absorbance reading of a cell sample by the mean absorbance value of the control.

[2] = test system: human aortic smooth muscle cells; test: Combined effects of photoinitiator and UV exposure on cell survival, MTS assay; type: cell-based; conditions: 3 days
Method: as §1
The cellular damage due to the combined effects of photoinitiator and UV exposure was evaluated. Briefly, the HASMCs were seeded onto 24-well plates and allowed to grow for 2 days. Irgacure 2959 solutions with final concentrations of 0.01%, 0.015%, 0.04%, and 0.08% (w/v) in complete media were prepared. After adding these solutions, cells were incubated for 30 min to allow for the mixing of the photoinitiator. The well plates were then exposed to 1, 3, and 5 min of UV light. Wells containing cells not exposed to either UV light or photoinitiator solution served as controls for this experiment. Cell samples were incubated for 3 days before analyzing the cell survival. […] The cell survival for the controls was determined to be 1±0.09.
as §2

NIH/3T3 fibroblast cells = conditions: concentrations 0.05% (w/w); cited from earlier work
[3] = test system: human aortic smooth muscle cells; test: Ascorbic acid scavenging of free radicals to increase cell survival, MTS assay; type: cell-based; conditions: 50 mg/L ascorbic acid, 0.15% (w/v) Irgacure 2959, 5 min UV, 3 days
Method: The efficiency of the antioxidant, ascorbic acid, was evaluated in scavenging the free radicals in an effort to increase cell survival. HASMCs were exposed to 0.15% (w/v) solution of Irgacure 2959 in complete media supplemented with varying concentrations of ascorbic acid (0-200 mg/L). After incubating for 30 min, the cells were exposed to 5 min of UV light, and cell survival was quantified after 3 days. To evaluate the effect of added antioxidants on the gelation time, the gelation times (i.e., the time required for the materials to form a gel) were determined using three methods on 96-well plates. […] Then, the solution was monitored at that this specific wavelength AQ3 (610 nm) over a time course. The result was graphed as function of time, and the gelation time was defined as the time that had the highest changes in the absorbance intensities.
as §2

SMILES	relative cell survival ([1]; 0.01% (w/v))	relative cell survival ([1]; 0.02% (w/v))	relative cell survival ([1]; 0.16% (w/v))	cell survival ([1]; below 0.02% (w/v))	relative cell survival ([2]; 0.01% (w/v), 1, 3 and 5 min UV)	relative cell survival ([2]; 0.015% (w/v), 1, 3 and 5 min UV)	relative cell survival ([2]; 0.04% (w/v), 1 min UV)	relative cell survival ([2]; 0.04% (w/v), 3 min UV)	relative cell survival ([2]; 0.04% (w/v), 5 min UV)	fibroblast survival (NIH/3T3 fibroblast cells)	relative cell survival compared to samples without ascorbic acid [3]
CC(C)(O)C(=O)c1ccc(OCCO)cc1 [Irgacure 2959, 2-hydroxy-1-[4-(2-hydroxyethoxy)phenyl]-2-methyl-1-propanone]	1.03±0.10	0.85±0.09	0.25±0.01	no significant decrease in cell survival	did not show any statistically significant decrease in relative cell survival	did not show any statistically significant decrease in relative cell survival	0.76±0.05	0.74±0.04	0.67±0.05	does not affect fibroblast survival	
O=C1O[C@H]([C@@H](O)CO)C(O)=C1O [ascorbic acid]											significantly improve the relative cell survival rates
